Source: patent US7910624B1, “Compositions for the treatment of blood disorders” (The Trustees of Boston University, priority 1995, dated 2011)
Entries after “also recorded” stand apart in the source; their conditions may differ.

What was measured:
human erythroid cells = assay: DNA fragmentation by flow cytometry (propidium iodide); assay type: cell-based; conditions: for effect in DNA fragmentation assays: summary statement
Protocol: Such activities might limit their utility for treatment of anemias such as occur in thalassemia, but alternatively would be useful for anticancer effects. To determine cell viability, human erythroid cells were cultured in the presence and absence of these compounds for 4 days and the amount of DNA fragmentation which occurred was measured.
Flow cytometric determination of DNA profiles and DNA fragmentation were determined. Cytometric analysis was performed with a FACScan (Becton Dickenson Instruments; Columbia, Md.). The data analysis and display were performed using the Cell-Fit software program. Approximately 0.5×10^6 cells were washed twice with PBS and resuspended in 1 ml of 1% sodium citrate, 0.1% Triton X-100 and […] of propidium iodide/ml. Resulting permeabilized cells were kept in the dark at 4° C. overnight before DNA profile or DNA fragmentation analysis (Table 4).

[1] = test system: γ-globin gene promoter and HSS-II region of the locus control region; assay: In vivo footprinting (LM-PCR) of patients' erythroblasts before and during treatment; set-up: species or system human
Protocol: To determine whether this increase was due to the transcriptional modulation of the γ-globin genes and, if so, to examine whether protein-DNA interactions of regulatory sequences for γ-globin gene expression have been changed, in vivo footprinting analysis of the γ-globin gene promoter and HSS-II region of the locus control region (LCR) were performed. […] Compared to conventional in vitro footprinting methods, which are ordinarily employed to analyze protein-DNA interactions for promoter regions and fail to disclose tissue-specific binding of nuclear proteins to cis-acting elements, in vivo footprinting technique is able to provide bona fide information on transcription factors binding to cis-acting elements that reflects in vivo situations.
Erythroid cell-rich fractions were prepared from patients' peripheral blood or bone marrow before and during treatment, and were in vivo methylated using DMS. […] All of the footprints were analyzed two or more times to ensure reproducibility.
In the γ-globin gene promoter, a DNA fragment extending up to −200 by relative to the transcription start site is sufficient to direct efficient transcription of the γ-globin genes (K. T. McDonagh et al., J. Biol. Chem. 266:11965-74, 1991; M. J. Urich Blood 75:990-99, 1990). […] Erythroblasts from a patient with sickle cell anemia, before and after butyrate treatment were analyzed. […]

[2] = test system: γ-globin promoter fragment containing FRE-γ1; assay: Gel mobility shift assay with nuclear extracts of patients' erythroblasts; set-up: species or system human; conditions: nuclear extracts of thalassemic patients on therapy, 21 and 43 hours after
Protocol: To gain further information on transcription factors binding to FRE elements, gel mobility shift assays with were carried out with promoter fragments containing FRE-γ1. The 3′ half of the DNA sequence of FRE-γ1 is overlapped with that of the stage-selector element (SSE) which has recently been identified in the γ-globin promoter and may be competitively silencing γ-globin gene expression in the fetal stage. Nuclear extracts were purified from a human erythroleukemia cell line, K562, and from erythroblasts that were isolated from peripheral blood or bone marrow of patients. Nuclear extracts used for gel mobility shift assays were prepared as described (Andrews et al., Nucl. Acids Res. 19:2499-2500, 1991). Oligonucleotides, corresponding to the nucleotide sequence from −39 to −78 of the γ-globin promoter (FIG. 13), were annealed to form double-stranded DNA and 5′-labeled with T4 polynucleotide kinase. Prior to addition of a labeled probe, 5 μg of nuclear extracts were mixed with 500 ng of poly(dA-dT) in 20 μl of a binding buffer (25 mM Hepes, pH 7.5, 50 mM KCl, 12.5 mM MgCl2, 1 mM DTT, 10 mM ZnSO4, 5% (v/v) glycerol, 1% (v/v) NP-40) at room temperature for 30 minutes. After addition of a labeled probe of 5×10^6 cpm, the mixture was incubated for 30 minutes at room temperature. […]

[3] = test system: BFU-e (burst forming unit-erythroid) colonies from peripheral blood mononuclear cells; assay: Stimulation of erythroid proliferation in cell cultures (BFU-e colony growth); assay type: cell-based, human; conditions: 0.1 mM; 13-14 days; compared with control cultures
Protocol: Peripheral blood was collected from normal volunteers and patients with anemia due to sickle cell disease or thalassemia. Mononuclear cells were isolated by Ficoll-Hypaque (Pharmacia Biotech; Piscataway, N.J.) centrifugation and cultured in Iscove's Modified Dulbecco's Media (IMDM; GIBCO/BRL; Grand Island, N.Y.) supplemented with 10% fetal calf serum, 300 μg/ml glutamine, 3 units/ml IL-3 (Amgen; Thousand Oaks, Calif.), and 2 units/ml erythropoietin (Terry Fox Labs; Vancouver, B.C.). Chemical compounds were obtained from Sigma Chemical (St. Louis, Mo.) or Aldrich Chemical (Milwaukee, Wis.), unless otherwise indicated, and formulated into pharmaceutical compositions by dissolving in aqueous solutions of media or sterile water pH adjusted to about 7.4. Solutions were sterilized by passage at least once through 0.22 micron Nalgene filters and added to cell cultures at final concentrations that are pharmaceutically achievable in vivo (typically between about 0.1 mM to 2.0 mM). Cells were incubated with compounds for between 13-14 days at 37° C. in humidified 5% CO2, and fed and passed, as necessary. Colony growth, proportion of fetal globin-expressing cells and amounts of fetal globin production were assayed. Results are presented in Table 1 as BFU-e stimulation (colony growth).

[4] = 1.0 mM to 2.0 mM, untreated cells 26%
[5] = 2.0 mM, 4 days, controls 26%, 22%

Row | Compound | Degraded DNA (human erythroid cells; 0.5 mM, 4 days, controls 26%, 22%) [%] | Degraded DNA (human erythroid cells; [4]) [%] | Degraded DNA (human erythroid cells; 1.0 mM, 4 days, controls 26%, 22%) [%] | Degraded DNA (human erythroid cells; [5]) [%] | effect in DNA fragmentation assays (human erythroid cells) | in vivo footprints of HSS-II ([1]; erythroblasts from a treated sickle cell patient) | in vivo footprints over the γ-globin promoter ([1]; erythroblasts of treated patients with sickle cell anemia or β-thalassemia) | protein-DNA binding activity in gel shift [2] | BFU-e Stimulation (colony growth) [3] [%]
1 | CCCC(=O)O [AB, arginine butyrate] | 32 | 44 | 34 | 44 | decrease cell viability | novel in vivo footprints that were not seen in a pre-treatment sample became apparent | induces multiple transcription factors which interact with the γ-globin gene promoter; also recorded: degree of protection on G residues in FRE-γ1 consistently increased | a new binding activity appeared | –
2 | O=C(O)COc1ccccc1 [PAA, Phenoxyacetic acid] | – | 20.6 | – | 20.6 | reduce DNA fragmentation | – | – | – | 135
